The target of data set [1] is recombinant perforin (UniProt P10820). In kind it is cell-based. The conditions noted are these: read-out: Jurkat IC50; recombinant perforin pre-incubated 30 min with compound; 51Cr-labelled Jurkat cells, 0.1% BSA, 37° C. 4 hours. An outline of the steps:
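Jurkat T lymphoma target cells labelled 1 h with 100 μCi ^51Cr, washed, resuspended at 1×10^5 cells/mL in RPMI with 0.1% BSA; lysis read as ^51Cr release into supernatant by gamma counting. Triplicate points; IC50 from the concentration range.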

Data set [2] deals with KHYG-1 NK cell-mediated lysis of K562 cells. As to the kind of experiment: Inhibition of KHYG-1 NK cell-mediated lysis of K562 cells (51Cr release). The data set is classed as cell-based. Particulars: K562 target cells, Effector:Target 2:1, 4 hours 37° C. An outline of the steps:
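KHYG-1 NK effector cells in RPMI+0.1% BSA were preincubated with compounds up to 20 μM for 20 minutes at RT. ⁵¹Cr-labelled K562 targets were then added (E:T 2:1) for 4 hours at 37 °C, and ⁵¹Cr release gamma-counted as percent specific cytotoxicity, mean of triplicates ± SEM.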

Data set [3] has as its system KHYG-1 NK cells. Kind of data set: Toxicity to KHYG-1 NK cells (trypan blue viability). In kind it is cell-based. Particulars: viable cells as percentage of total (% viability), 18 to 24 hours.

Structures are written as SMILES. pIC50: −log10 of the molar value.

The results in this text go back to US20130065897A1, “COMPOUNDS, PREPARATION AND USES THEREOF” (PETER MACCALLUM CANCER INSTITUTE, priority 2009, published 2013).

recombinant perforin, sequence (P10820 whole entry): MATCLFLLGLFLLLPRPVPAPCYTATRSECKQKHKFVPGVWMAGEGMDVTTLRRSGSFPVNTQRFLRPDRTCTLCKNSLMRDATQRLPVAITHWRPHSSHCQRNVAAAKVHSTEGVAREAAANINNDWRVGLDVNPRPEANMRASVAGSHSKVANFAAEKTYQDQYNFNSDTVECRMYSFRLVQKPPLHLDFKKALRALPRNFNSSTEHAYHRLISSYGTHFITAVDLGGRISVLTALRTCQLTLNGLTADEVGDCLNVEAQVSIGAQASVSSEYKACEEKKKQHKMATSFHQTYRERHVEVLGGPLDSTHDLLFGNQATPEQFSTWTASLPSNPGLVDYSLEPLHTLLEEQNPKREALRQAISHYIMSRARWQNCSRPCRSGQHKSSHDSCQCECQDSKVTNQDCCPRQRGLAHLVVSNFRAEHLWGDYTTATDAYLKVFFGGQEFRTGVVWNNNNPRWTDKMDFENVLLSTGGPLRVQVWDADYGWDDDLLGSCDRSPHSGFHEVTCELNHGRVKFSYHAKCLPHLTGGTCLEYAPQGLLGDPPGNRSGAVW

The pIC50 is the IC50 on a negative log10 scale, so that one unit is a factor of ten. A word on the inhibition: it is the share of the control response that was lost under treatment. The melting point is the temperature, or range, at which the solid turns liquid. `O=C1NC(=S)N/C1=C/c1cc2cc(-c3ccc4c(c3)COC4=O)ccc2o1` [Cmpd 10, (2)-5-((5-(1-Oxo-1,3-dihydroisobenzofuran-5-yl)benzofuran-2-yl)methylene)-2-thioxoimidazolidin-4-one] registered a melting point of over 300 °C. For the same compound, the negative-log IC50 (pIC50) in data set [1] is 6.21. Also, the inhibition at 20 µM in data set [2] came to 51%. In addition, in data set [3], the “percent viable KHYG-1 cells (trypan blue) at 20 μM” value (shortened to “percent viable KHYG-1 cells”) was 88%.
`O=C1NC(=S)N/C1=C/c1cc2ccc(-c3ccc4c(c3)COC4=O)cc2[nH]1` [Cmpd 11, (E,Z)-5-((6-(1-Oxo-1,3-dihydroisobenzofuran-5-yl)-1H-indol-2-yl)methylene)-2-thioxoimidazolidin-4-one] displayed a melting point of over 300 °C. For the same compound, the pIC50 in data set [1] is 5.63. In addition, the inhibition at 20 µM in data set [2] was found to be 100%. Besides, in data set [3], the “percent viable KHYG-1 cells” value came out at 86%.
The compound `O=C1NC(=S)N/C1=C/c1cc2cc(-c3ccc4c(c3)COC4=O)ccc2[nH]1` [Cmpd 12, (E,Z)-5-((5-(1-Oxo-1,3-dihydroisobenzofuran-5-yl)-1H-indol-2-yl)methylene)-2-thioxoimidazolidin-4-one] showed a melting point of over 300 °C. Besides, the pIC50 in data set [1] is 6.14. In data set [2], this compound returned an inhibition at 20 µM of 74%. In addition, in data set [3], the “percent viable KHYG-1 cells” value is recorded as 94%.
On the same counts, the results for `O=C1NC(=S)N/C1=C\c1ccc2ccc(-c3ccc4c(c3)COC4=O)cc2n1` [Cmpd 13] are over 310 °C, 5.76, 52% and 70%.
`O=C1NC(=S)N/C1=C/c1cc(-c2ccc3c(c2)COC3=O)cs1` [Cmpd 15, (E,Z)-5-((4-(1-Oxo-1,3-dihydroisobenzofuran-5-yl)thiophen-2-yl)methylene)-2-thioxoimidazolidin-4-one] had a melting point of over 300 °C. The inhibition at 20 µM in data set [2] came to 67%. The “percent viable KHYG-1 cells” value in data set [3] is 96%.
Compound `COc1ccc(-c2ccc(/C=C3/NC(=S)NC3=O)s2)cc1` [Cmpd 22, (E,Z)-5-((5-(4-Methoxyphenyl)thiophen-2-yl)methylene)-2-thioxoimidazolidin-4-one] returned a melting point of 288 to 293 °C. In addition, the pIC50 in data set [1] was 5.05. In data set [2], this compound showed an inhibition at 20 µM of 78%. The “percent viable KHYG-1 cells” value in data set [3] is given as 100%.
As to `O=C1C/C(=C/c2ccc(-c3ccc4c(c3)COC4=O)s2)C(=O)N1` [Cmpd 36, (E,Z)-3-((5-(1-Oxo-1,3-dihydroisobenzofuran-5-yl)thiophen-2-yl)methylene)pyrrolidine-2,5-dione], the melting point is over 295 °C. In addition, in data set [2], testing at 20 µM gave an inhibition of 51%. For the same compound, the “percent viable KHYG-1 cells” value in data set [3] was 65%.
`O=C1NCC/C1=C\c1ccc(-c2ccc3c(c2)COC3=O)s1` [Cmpd 37, (E,Z)-3-((5-(1-Oxo-1,3-dihydroisobenzofuran-5-yl)thiophen-2-yl)methylene)pyrrolidin-2-one] registered a melting point of 224 to 227 °C. Moreover, in data set [2], the inhibition at 20 µM amounted to 20%. Besides, in data set [3], the “percent viable KHYG-1 cells” value was determined as 97%.
Take `O=C1NC(=S)N/C1=C/c1ccc(-c2ccc(C(=O)NCCN3CCOCC3)cc2)s1` [Cmpd 45, (E,Z)-N-(2-Morpholinoethyl)-4-(5-((5-oxo-2-thioxoimidazolidin-4-ylidene)methyl)thiophen-2-yl)benzamide]: the melting point fell in the range of 248 to 252 °C. In data set [1], the pIC50 was under 4.70. This compound yielded an inhibition at 20 µM in data set [2] of 78%. In addition, in data set [3], the “percent viable KHYG-1 cells” value is reported as 88%.
`O=C1NC(=S)N/C1=C/c1cnc(-c2ccc3c(c2)COC3=O)o1` [Cmpd 54, (E,Z)-5-((2-(1-Oxo-1,3-dihydroisobenzofuran-5-yl)oxazol-5-yl)methylene)-2-thioxoimidazolidin-4-one]: the melting point is over 295 °C. For the same compound, the inhibition at 20 µM in data set [2] turned out to be 55%. Further, the “percent viable KHYG-1 cells” value in data set [3] worked out at 100%.
For the compound `O=C1NC(=S)N/C1=C\c1cnc(-c2ccc3c(c2)COC3=O)s1` [Cmpd 55, (E,Z)-5-((2-(1-Oxo-1,3-dihydroisobenzofuran-5-yl)thiazol-5-yl)methylene)-2-thioxoimidazolidin-4-one], the melting point was over 300 °C. For the same compound, the pIC50 in data set [1] was 5.76. The same compound displayed an inhibition at 20 µM in data set [2] of 53%. Besides, the “percent viable KHYG-1 cells” value in data set [3] is 95%.
For the compound `O=C1NC(=S)N/C1=C\c1cc(-c2ccc3c(c2)COC3=O)no1` [Cmpd 58, (E,Z)-5-((3-(1-Oxo-1,3-dihydroisobenzofuran-5-yl)isoxazol-5-yl)methylene)-2-thioxoimidazolidin-4-one], the melting point was over 300 °C. Also, the inhibition at 20 µM in data set [2] was determined as 39%. In addition, the “percent viable KHYG-1 cells” value in data set [3] is reported as 82%.
With `O=C1NC(=S)N/C1=C\c1csnc1-c1ccc2c(c1)COC2=O` [Cmpd 59, (E,Z)-5-((3-(1-Oxo-1,3-dihydroisobenzofuran-5-yl)isothiazol-4-yl)methylene)-2-thioxoimidazolidin-4-one], the melting point was over 300 °C. For the same compound, in data set [2], testing at 20 µM gave an inhibition of 24%. For the same compound, the “percent viable KHYG-1 cells” value in data set [3] is 93%.
For `O=C1NC(=S)N/C1=C/c1ccc(-c2ccc3c(c2)CN(CCN2CCOCC2)C3=O)s1` [Cmpd 67, (E,Z)-2-(2-Morpholinoethyl)-5-(5-((5-oxo-2-thioxoimidazolidin-4-ylidene)methyl)thiophen-2-yl)isoindolin-1-one] the same measures were 261 to 264 °C, 78% and 73%.
`CN(C)CCCN1Cc2cc(-c3ccc(/C=C4/NC(=S)NC4=O)s3)ccc2C1=O` [Cmpd 74, (E)-2-(3-(Dimethylamino)propyl)-5-(5-((5-oxo-2-thioxoimidazolidin-4-ylidene)methyl)thiophen-2-yl)isoindolin-1-one]: the melting point is 212 °C (dec.). Moreover, the pIC50 in data set [1] was under 4.70. Moreover, in data set [2], the inhibition at 20 µM stood at 53%. The “percent viable KHYG-1 cells” value in data set [3] worked out at 82%.
For `O=C1NC(=S)N/C1=C/c1cc2cc(-c3ccc4c(c3)COC4=O)ccc2s1` [Cmpd 79, (E,Z)-5-((5-(1-Oxo-1,3-dihydroisobenzofuran-5-yl)benzo[b]thiophen-2-yl)methylene)-2-thioxoimidazolidin-4-one], the melting point is over 305 °C. Besides, in data set [2], 20 µM produced 59% inhibition. For the same compound, the “percent viable KHYG-1 cells” value in data set [3] is reported as 72%.
On to `O=C1NC(=S)N/C1=C/c1cc2ccc(-c3ccc4c(c3)COC4=O)cc2s1` [Cmpd 80, (E,Z)-5-((6-(1-Oxo-1,3-dihydroisobenzofuran-5-yl)benzo[b]thiophen-2-yl)methylene)-2-thioxoimidazolidin-4-one], for which the melting point is over 310 °C. Besides, the pIC50 in data set [1] was 6.44. The same compound yielded an inhibition at 20 µM in data set [2] of 55%. The “percent viable KHYG-1 cells” value in data set [3] is 75%.
